{"source": "patent US20240398972A1", "about": "“METHODS FOR PRODUCING ANTIBODY-LINKER CONJUGATES” (ARARIS BIOTECH AG, priority 2021, published 2024)", "origin": "cited, not measured here", "key": {"various tumor cell lines": {"test_system": "various tumor cell lines", "details": "cytostatic effects"}, "[1]": {"target": "DNA-dependent RNA polymerase II (Homo sapiens, UniProt P24928)", "details": "complex amanitin / RNA-polymerase II, not covalently bound"}}}
{"compound": "CC[C@H](C)[C@H](NC(=O)[C@H]1CCCCN1C)C(=O)N(COC(=O)CC(C)C)[C@H](C[C@@H](OC(C)=O)c1nc(C(=O)N[C@@H](Cc2ccc(O)cc2)C[C@H](C)C(=O)O)cs1)C(C)C", "note": "[Tubulysin A]", "values": [{"measurement": "IC50", "setting": "various tumor cell lines", "value": "picomolar range"}]}
{"compound": "amanitin", "values": [{"measurement": "Kd", "setting": "[1]", "value": 3, "unit": "nM"}]}
